Reference: US11478440B2, “Combination of Elafibranor or derivatives thereof with an anti-NASH, anti-fibrotic or anti-cholestatic agent” (GENFIT, priority 2017, dated 2022)

Legend:
[1] = system: fibrosing NASH-model of rats fed a CDAA+1% cholesterol diet; test: Chronic CDAA+1% cholesterol rat model: hepatic collagen content (hydroxyproline); type: in vivo, Wistar rats; conditions: GFT505 3 mg/kg/d, OCA 10 mg/kg/d, alone or combined; 12 weeks in diet
Procedure: (§1) The preventive effects of Elafibranor alone, OCA alone and the combination of both were assessed in a fibrosing NASH-model of rats fed a CDAA+1% cholesterol diet. 150-175 g male Wistar rats were fed a control (CSAA) diet, CDAA+1% cholesterol diet, or CDAA+1% cholesterol diet supplemented with Elafibranor 1, 3 and 10 mg/kg/day, OCA 10 and 30 mg/kg/day or combined drugs (Elafibranor 1, 3 and 10 mg/kg/day combined to OCA 10 mg/kg/day) for 12 weeks.
(§2) The body weight and the food intake were monitored twice per week. On the last day of treatment, rats were sacrificed after a 6 h fasting period. The liver was rapidly excised for biochemical and histological studies.
The hepatic collagen content was determined using the appropriate QuickZyme kit (Total collagen assay, cat #QZB-totcol2). The assay is based on the detection of hydroxyproline, which is a non-proteinogenic amino acid mainly found in the triple helix of collagen. Thus, hydroxyproline in tissue hydrolysates can be used as a direct measure of the amount of collagen present in the tissue (without discrimination between procollagen, mature collagen and collagen degradation products).
Complete hydrolysis of tissue samples in 6M HCl at 95° C. is required before dosing the hydroxyproline. The assay results in the generation of a chromogen with a maximum absorbance at 570 nm. Results are expressed as mg of collagen/g of liver.

[2] = system: fibrosing NASH-model of rats fed a CDAA+1% cholesterol diet; test: Chronic CDAA+1% cholesterol rat model: liver histology (picrosirius fibrosis surface, NASH lesions); type: in vivo, Wistar rats
Procedure: as §1, §2
The liver slices were first fixed for 12 hours in formalin 4% solution. Then, the liver pieces were washed 30 minutes in PBS, and dehydrated in ethanol solutions (successive baths at 70, 80, 95 and 100% ethanol). The liver pieces were incubated in three different baths of Xylene (Sigma-Aldrich cat #534056), followed by two baths in liquid paraffin (56° C.). Liver pieces were then put into racks that were gently filled with HISTOWAX to completely cover the tissue.
The paraffin blocks containing the tissue pieces were removed from the racks and stored at room temperature. The liver blocks were cut into 3 μm slices.
Liver sections were deparaffinized, rehydrated and incubated for 3 minutes in Mayer's Hematoxylin (Microm, cat #F/C0303). Then, the liver sections were rinsed in water and incubated 1 minute in Eosin G (VWR, cat #1.09844.1000). Sections were rinsed in water then dehydrated, and mounted using the CV Mount medium (Leica, cat #14046430011).
Liver sections were deparaffinized, rehydrated and incubated for 15 minutes in a solution of Fast Green FCF 0.1% (Sigma-Aldrich, cat #F7258) before rinsing in a bath of 0.5% acetic acid (Panreac, cat #131008.1611). Then, the liver sections were rinsed in water and incubated 30 minutes in a solution of 0.1% sirius red (Direct Red 80, Fluka cat #43665) in saturated aqueous picric acid (Sigma-Aldrich cat #P6744). Sections were then dehydrated, and mounted using the CV Mount medium (Leica, cat #14046430011).
A technician blinded to the source of each liver specimen performed histological examinations. Virtual slides were generated using the Pannoramic 250 scanner from 3D Histech. For each animal, a score summarizing the main histological lesions of NASH was attributed according to the NASH Clinical Research Network (Kleiner 2005, Brunt 1999). Briefly, steatosis, lobular inflammation and hepatocytes ballooning were scored. The NAFLD Activity Score (NAS score) was established for each individual as the unweighted sum of the steatosis (0-3), lobular inflammation (0-3) and the ballooning (0-2) injury grading.
Using Quant Center software (3D Histech, including Pattern Quant and Histo Quant modules), collagen-stained areas were quantified. Briefly, Pattern Quant was used to detect the tissue and measure its surface. Then, Histo Quant was used to detect the stained collagen content and measure its surface, based on a color threshold method. The fibrosis area was then expressed as the percentage of the collagen surface to the whole tissue per animal.

[3] = system: LPS-activated macrophages (THP-1); test: TNFα secretion (HTRF) in LPS-activated THP-1 macrophages; type: cell-based, human; conditions: Elafibranor 1 μM alone; LPS 100 ng/ml 6 h
Procedure: THP-1 monocytes (ECACC #88081201) were seeded at a density of 25550 cells per well in 384-well plate in RPMI1640 (Gibco, 21875) supplemented with 10% SVF and differentiated into macrophages using PMA (Phorbol 12-myristate 13-acetate, Sigma, P8139) at the final concentration of 100 ng/ml for 24 hours.
For these experiments, a checkerboard matrix was generated. ELA and component stocks were serially diluted in DMSO in 6-points series in a column (ELA) and a 10-points series in a raw (component) of a 96-well plate for other compounds. Subsequently, the 6×10 combination matrix was generated by 1:1 mixing of all single agent concentrations.
After 24 hrs with PMA, medium was removed, and replaced by serum free RPMI. […]
Human TNFα is quantified in the supernatants using the Homogeneous Time Resolved Fluorescence (HTRF) technology (Cisbio 62[…]), based on FRET technology. FRET (Fluorescence Resonance Energy Transfer) is based on the transfer of energy between two fluorophores, a donor and an acceptor, when in close proximity. Molecular interactions between biomolecules can be assessed by coupling each partner with a fluorescent label and by detecting the level of energy transfer (665 nm). […]

Substance: 1-[4-methylthiophenyl]-3-[3,5-dimethyl-4-carboxydimethylmethyloxyphenyl]prop-2-en-1-one [Elafibranor]
- Hepatic collagen content, percentage over the untreated CDAA + 1% cholesterol rats [1]: 45% ± 12%
- fibrosis development ([2]; CDAA/chol diet rats, 12 weeks): very significant attenuation of fibrosis development
- hepatocyte damage as judged by ballooning ([2]; CDAA/chol diet rats, 12 weeks): prevented or attenuated by elafibranor, in a dose-dependent manner
- lobular inflammation ([2]; CDAA/chol diet rats, 12 weeks): attenuated by elafibranor in a dose-dependent manner
- Fibrosis surface, percentage over the untreated CDAA + 1% cholesterol rats ([2]; GFT505 3 mg/kg/d, OCA 10 mg/kg/d, alone or combined, 12 weeks in diet): 34% ± 17%
- inhibition of TNFα secretion [3]: 21%
